From US20080069898A1, “Topical Compositions Comprising Myrica Gale Oil” (priority 2004, published 2008)

Test system: skin
Assay: 96 hour patch test of irritancy
Settings: 0.3% w/v in sterile water
Protocol: A 96 hour patch test was carried out to assess the irritancy or otherwise of Myrica gale oil when applied to the skin. For comparison, a solution of sodium dodecyl sulphate and white soft paraffin were also investigated.

CCCCCCCCCCCCOS(=O)(=O)[O-].[Na+] [Sodium dodecyl sulphate (SDS), Sodium dodecyl sulphate]
Mean Dryness (D): 0.72 | Mean Erythema (E): 4.54 | Mean Irritation (E + D): 5.26
